Test results as given in US12324841B2, “Methods of treating cancer with a combination of an anti-PD-1 antibody and an anti-tissue factor antibody-drug conjugate” (GENMAB A/S, priority 2018, dated 2025).

Columns and labels:
[1] = tested on: MDA-MB-231 cells (breast adenocarcinoma); assay: MDA-MB-231 xenograft model in humanized NSG mice; format: in vivo; conditions: IV, weekly
Description: Mice were subcutaneously inoculated with 5×10^6 MDA-MB-231 cells (breast adenocarcinoma; American Tissue Culture Collection (ATCC), cat. no. HTB-26), in 100 μL phosphate-buffered saline (PBS). Before inoculation, cells were cultured in DMEM with high glucose and HEPES without L-glutamine (Lonza, cat. no. BE12-[…]), 10% (v/v) donor bovine serum with iron New Zealand Origin (Thermo Fisher Scientific, DBSI, cat. no. 10371-029), 2 mM L-glutamine (Lonza, cat. no. BE17-[…]), 1 mM Na-pyruvate (Lonza, cat. no. BE13-[…]), MEM non-essential amino acids (Life Technologies, cat. no. 11140) and 1% (v/v) penicillin/streptomycin (Lonza, cat. no. DE17-[…]), in CellSTACK culture chambers (Corning, cat. no. 3313). Tumor size was determined by caliper measurement at least two times a week and tumor volume was calculated as 0.52×length×width^2. […] The first dose of the anti-PD-1 antibody (i.e., pembrolizumab) was 10 mg/kg, followed by 5 mg/kg every five days for a maximum of six treatments. […] The IgG1 isotype control antibody is the b12 antibody which is known to bind to HIV-1 gp120. […] Mice were housed in individually ventilated (IVC) cages, five mice per cage and identified by ear tags. […] Statistical comparison of tumor burden was performed using Mann-Whitney analysis on the last day that all treatment groups were intact. Kaplan-Meier analysis was performed based on tumor volume (>500 mm^3).

[2] = tested on: murine tumor cells that stably express human TF; assay: Syngeneic tumor model: immunization with drug-killed human TF positive murine tumor cells, then tumor challenge; format: in vivo, Balb/c mice; conditions: mice immunized with tumor cells killed by 1-5 μg per ml tisotumab vedotin or 100 nM MMAE
Description: Mouse tumor cells are transfected with plasmid constructs encoding human tissue factor (TF) and sgRNA-guided Cas9 nuclease (sgRNA/Cas9) to generate a murine cell line that expresses the human TF. Fluorescence activated cell sorting (FACS) yields a clonal population of murine tumor cells that stably express human TF, these cells are then treated with 1 μg to 5 μg per ml of tisotumab vedotin or 100 nM of MMAE for 4 days. In order to prepare dying cells for immunization, treated murine tumor cells are overlaid atop Histopaque, and centrifuged at 2000 g for 30 minutes. Dead and dying cells are pelleted underneath the Histopaque layer, and viability assessed by trypan blue exclusion. A sample with approximately <20% live cells as measured by trypan blue exclusion is obtained. Flash-frozen tumor cells are prepared by submerging the cells in liquid nitrogen for 10 seconds, followed by immersion in 37° C. water until completely thawed. The liquid nitrogen freeze-thaw process is repeated 5 times. Dead and dying human TF positive tumor cells are resuspended in phosphate buffered saline (PBS) and 2×10^6 cells are injected into the peritoneum of immune-competent Balb/c mice. Seven days later, mice receive a second immunization with dead and dying cells prepared in the same manner.
Fourteen days after initial immunization with the dead and dying human TF positive tumor cells, mice are subcutaneously implanted with 5×10^6 wild-type tumor cells and monitored for tumor growth. […] As these effects occur in the absence of any administered therapeutic agent, the administration of cells killed by tisotumab vedotin or MMAE is sufficient to generate long-lasting protective immune memory against subsequent tumor cell challenge. Protective immune memory is amplified by treating these mice with tisotumab vedotin in combination with an antibody that binds to murine PD-1.

[3] = tested on: relapsed, recurrent, and/or metastatic cervical cancer; assay: Phase I/II trial of tisotumab vedotin (NCT02001623); format: in vivo, human
Text: Further investigation of tisotumab vedotin as a monotherapy and in combination with immunotherapy (e.g., an anti-PD-1 antibody) in a larger cohort of patients with cervical cancer is needed.
Three adverse events of special interest were identified during treatment with tisotumab vedotin alone in the Phase IIa trial discussed above: 1) ocular adverse events; 2) adverse events of peripheral neuropathy; and 3) adverse events of bleeding. […] In the present trial, in order to prevent ocular AEs, all subjects in both treatment groups (i.e., tisotumab vedotin alone or in combination with pembrolizumab) must adhere to the following ocular pre-medication guidelines: 1) use of preservative-free lubricating eye drops during the whole treatment phase of the trial (i.e., from first dose of tisotumab vedotin until the safety follow-up visit). Lubricating eye drops should be administered according to the product prescribing information; 2) it is recommended not to wear contact lenses while treated with tisotumab vedotin from the first dose until a safety follow-up visit; 3) use of refrigerator-based eye cooling pads during infusion, e.g. THERA PEARL Eye Mask or similar, to be applied immediately before infusion in accordance with the instructions provided with the eye cooling pads; 4) administration of local ocular vasoconstrictor before infusion (brimonidine tartrate 0.2% eye drops or similar, 3 drops in each eye immediately prior to start of infusion; otherwise to be used in accordance with the product prescribing information). […] Steroid eye drops should be administered as 1 drop in each eye, 3 times daily, for 3 days, or used in accordance with the product prescribing information.
For AEs of peripheral neuropathy (including neuropathy peripheral; peripheral sensory neuropathy; peripheral motor neuropathy; polyneuropathy): Peripheral neuropathy is a well-known adverse reaction to treatment with platinum and taxane based chemotherapies as well as MMAE-based ADCs and is reported in approximately 35% of subjects who received treatment with tisotumab vedotin. […] A mitigation plan, including dose reduction (See Table 4) and dose delays, is in place to control the rates and severity of peripheral neuropathy observed in subjects treated with tisotumab vedotin. For Grade 2 and 3, or initial or worsening of pre-existing condition, hold tisotumab vedotin until event has improved to ≤grade 1 then reduce next dose according to dose reduction shown in Table 4. No action is required to be taken with pembrolizumab. For ≥Grade 4, permanently discontinue tisotumab vedotin. Contact sponsor to discuss continuation of pembrolizumab alone.
For AEs of bleeding: Bleeding events are considered of special interest due to the mode of action of tisotumab vedotin. […] Dose modification and toxicity management guidelines are in place (Table 7).

T cells = assay: T cell activation in CSFE labeled PBMCs fed killed MDA-MB-231 cells, with or without pembrolizumab; format: cell-based, human; conditions: 48 hours, without pembrolizumab
Description: FIG. 8A-8C is a series of graphs in which Tissue Factor positive MDA-MB-231 cells killed with various agents were fed to CSFE labeled human peripheral blood mononuclear cells (PBMCs) in the presence or absence of the PD1 targeting antibody pembrolizumab for 48 hours and T cells activation assessed by A) decreased CSFE fluorescent indicative of T cell proliferation and B) and C) cytokine production.
Induction of the innate immune response following exposure to cancer cells undergoing ICD sets up secondary T cell activation, which can be enhanced by concomitant pembrolizumab treatment.

[4] = subjects who received tisotumab vedotin

## tisotumab vedotin: antibody-drug conjugate comprising an antibody that binds to tissue factor (TF), a protease-cleavable linker, and the microtubule disrupting agent MMAE
[1]; tisotumab vedotin alone 0.5 mg/kg
  tumor burden as assessed by tumor volume: efficiently reduced tumor burden
[1]; tisotumab vedotin alone 1.0 mg/kg
  tumor burden as assessed by tumor volume: efficiently reduced tumor burden
[2]
  survival after challenge with wild-type tumor cells: increased survival
  tumor growth after challenge with wild-type tumor cells: delayed tumor growth
[3]; 2.0 mg/kg tisotumab vedotin
  efficacy: robust efficacy
  safety profile: manageable safety profile
[3]; in vivo
  bleeding events: epistaxis, frequency: most common reported AE
  bleeding events: epistaxis, grade: nearly all of the cases are grade 1
  clinically relevant perturbations in aPTT or prothrombin time (PT): have not been observed
[3]; [4]
  peripheral neuropathy as cause of permanent discontinuation: leading cause of permanently discontinuation
  peripheral neuropathy, grade of reported cases: majority of the reported cases are grade 1-2
  peripheral neuropathy, share of subjects: approximately 35%
[3]; tisotumab vedotin alone
  ocular AEs: grade 1-2 conjunctivitis: frequently reported
T cells
  T cell proliferation (CSFE dilution): drove T cell proliferation
  production of IFNγ: production of T cell specific cytokines such as IL12P70 and IFNγ
  production of IL12p70: production of T cell specific cytokines such as IL12P70 and IFNγ
